A value given as a limit tells only on which side of the number the result lay.

In general, EC50 refers to the concentration at which the effect is half-maximal.

For this assay, the system named is SH-SY5Y M-currents (KCNQ2, KCNQ3 and KCNQ5). Nature of the assay: SH-SY5Y native cell line FLIPR assay (voltage-sensitive dye DiBAC). It counts as cell-based, mouse neuroblastoma, rat glioma hybrid cell line. To be noted: FLIPR assay, SH-SY5Y native cell line; Table 1; read-out: SH-SY5Y EC50. From the text:
SH-SY5Y cells, a mouse neuroblastoma, rat glioma hybrid cell line, functionally express M-currents (Robbins et al., J. Physiol. 451: 159-85 (1992). SH-SY5Y M-currents are likely comprised, at least in part, of KCNQ2, KCNQ3 and KCNQ5, since these genes are reportedly robustly expressed in differentiated SH-SY5Y cells (Selyanko et al., J. Neurosci. 19(18): 7742-56 (1999); Schroeder et al., J. Biol. Chem. 275(31): 24089-95 (2000)) and KCNQ3 dominant-negative constructs reduce M-current density in these cells (Selyanko et al., J. Neurosci. 22(5): RC212 (2002).
SH-SY5Y were maintained in DMEM (high glucose) supplemented with 10% fetal bovine serum, 0.05 mM pyridoxine, 0.1 mM hypoxanthine, 400 nM aminopterin, […], 50 μgml^−1 gentamycin and 10 mM HEPES, in an incubator at 37° C. with a humidified atmosphere of 5% CO2. Cells were plated in 96 well plates differentiated by addition of 10 μM PGE1 and 50 μM isomethylbutylxanthine to the growth media prior to study.
Differentiated SH-SY5Y cells were loaded with voltage-sensitive dye by incubation in Earls Balanced Salt Solution (EBSS) containing […] DiBAC for 1 h. Following loading, drug solution containing […] DiBAC was added to each well. Changes in fluorescence were measured every 30 s for 25 min. The maximum change in fluorescence was measured and expressed as a percentage of the maximum response obtained in the presence of a positive control agent.
With `CC1(CC(=O)Nc2nc3ccc(C(F)(F)F)cn3c2CC2CCCCC2)CCCC1` [Compound 46, N-(3-(cyclohexylmethyl)-6-(trifluoromethyl)imidazo[1,2-a]pyridin-2-yl)-2-(1-methylcyclopentyl)acetamide], the EC50 is < 500 nM.
On to `CC1(CC(=O)Nc2nc3ccc(C(F)(F)F)cn3c2C2CCCCC2)CCCC1` [Compound 47, N-(3-cyclohexyl-6-(trifluoromethyl)imidazo[1,2-a]pyridin-2-yl)-2-(1-methylcyclopentyl)acetamide], for which the EC50 was < 500 nM.
As to `CC(C)(C)CC(=O)Nc1nc2ccc(C(F)(F)F)cn2c1C1CCCC1` [Compound 48, N-(3-cyclopentyl-6-(trifluoromethyl)imidazo[1,2-a]pyridin-2-yl)-3,3-dimethylbutanamide], the EC50 was < 500 nM.
The value for `O=C(Cc1ccccc1)Nc1nc2ccc(C(F)(F)F)cn2c1C1CCCC1` [Compound 49, N-(3-cyclopentyl-6-(trifluoromethyl)imidazo[1,2-a]pyridin-2-yl)-2-phenyl acetamide] was < 500 nM; that for `O=C(Cc1ccc(F)cc1)Nc1nc2ccc(C(F)(F)F)cn2c1C1CCCC1` [Compound 50, N-(3-cyclopentyl-6-(trifluoromethyl)imidazo[1,2-a]pyridin-2-yl)-2-(4-fluorophenyl)acetamide] was < 500 nM.
`O=C(Nc1nc2ccc(C(F)(F)F)cn2c1CC1CCCCC1)C1CCCC1` [Compound 52, N-(3-(cyclohexylmethyl)-6-(trifluoromethyl)imidazo[1,2-a]pyridin-2-yl)cyclopentanecarboxamide]: the EC50 is < 500 nM.
The result for `CC(C)CCc1c(NC(=O)C2CCCC2)nc2ccc(C(F)(F)F)cn12` [Compound 53, N-(3-isopentyl-6-(trifluoromethyl)imidazo[1,2-a]pyridin-2-yl)cyclopentanecarboxamide] reads < 500 nM; that for `O=C(Nc1nc2ccc(C(F)(F)F)cn2c1C1CCCCC1)C1CCCC1` [Compound 54, N-(3-cyclohexyl-6-(trifluoromethyl)imidazo[1,2-a]pyridin-2-yl)cyclopentanecarboxamide], < 500 nM.
Turning to `O=C(Nc1nc2ccc(C(F)(F)F)cn2c1C1CCCC1)C1CCCC1` [Compound 55, N-(3-cyclopentyl-6-(trifluoromethyl)imidazo[1,2-a]pyridin-2-yl)cyclopentanecarboxamide], the EC50 was < 500 nM.
Take `CC1(CC(=O)Nc2nc3ccc(C(F)(F)F)cn3c2C2CCCC2)CCCC1` [Compound 56, N-(3-cyclopentyl-6-(trifluoromethyl)imidazo[1,2-a]pyridin-2-yl)-2-(1-methylcyclopentyl)acetamide]: the EC50 is < 500 nM.
In the case of `CC(C)(C)Cc1c(NC(=O)CC2CC2)nc2ccc(C(F)(F)F)cn12` [Compound 57, 2-cyclopropyl-N-(3-neopentyl-6-(trifluoromethyl)imidazo[1,2-a]pyridin-2-yl)acetamide], the EC50 is < 500 nM.
Regarding `CCC(C)CC(=O)Nc1nc2ccc(C(F)(F)F)cn2c1CC(C)(C)C` (stereo not shown) [Compound 58, 3-methyl-N-(3-neopentyl-6-(trifluoromethyl)imidazo[1,2-a]pyridin-2-yl)pentanamide], the EC50 was < 500 nM.
As for `CC(C)(C)Cc1c(NC(=O)C2CCCCC2)nc2ccc(C(F)(F)F)cn12` [Compound 59, N-(3-neopentyl-6-(trifluoromethyl)imidazo[1,2-a]pyridin-2-yl)cyclohexanecarboxamide], the EC50 is < 500 nM.
The value for `CC(C)(C)Cc1c(NC(=O)CC(F)(F)F)nc2ccc(C(F)(F)F)cn12` [Compound 60, 3,3,3-trifluoro-N-(3-neopentyl-6-(trifluoromethyl)imidazo[1,2-a]pyridin-2-yl)propanamide] was < 500 nM; that for `CC(C)(C)Cc1c(NC(=O)Cc2ccc(C(F)(F)F)cc2)nc2ccc(C(F)(F)F)cn12` [Compound 61, N-(3-neopentyl-6-(trifluoromethyl)imidazo[1,2-a]pyridin-2-yl)-2-(4-(trifluoromethyl)phenyl)acetamide] was < 500 nM; that for `CC(=O)Nc1nc2ccc(C(F)(F)F)cn2c1CC(C)(C)C` [Compound 62, N-(3-neopentyl-6-(trifluoromethyl)imidazo[1,2-a]pyridin-2-yl)acetamide] was 3000 to 10000 nM.
For the molecule `CC(C)CC(=O)Nc1nc2ccc(C(F)(F)F)cn2c1CC(C)(C)C` [Compound 63, 3-methyl-N-(3-neopentyl-6-(trifluoromethyl)imidazo[1,2-a]pyridin-2-yl)butanamide], the EC50 lay within 500 to 3000 nM.
The result for `CC(C)(C)Cc1c(NC(=O)C2CC2)nc2ccc(C(F)(F)F)cn12` [Compound 64, N-(3-neopentyl-6-(trifluoromethyl)imidazo[1,2-a]pyridin-2-yl)cyclopropanecarboxamide] reads 500 to 3000 nM.
The value for `CC(C)(C)CC(=O)Nc1nc2ccc(F)cn2c1CC1CCCCC1` [Compound 66, N-(3-(cyclohexylmethyl)-6-fluoroimidazo[1,2-a]pyridin-2-yl)-3,3-dimethylbutanamide] was < 500 nM; that for `Cc1ccc2nc(NC(=O)CC(C)(C)C)c(CC(C)(C)C)n2n1` [Compound 67, 3,3-dimethyl-N-(6-methyl-3-neopentylimidazo[1,2-b]pyridazin-2-yl)butanamide] was < 500 nM.
The result for `CC(CC(=O)Nc1nc2ccc(C(F)(F)F)cn2c1C1CC1)C(F)(F)F` (stereo not shown) [Compound 69, N-(3-cyclopropyl-6-(trifluoromethyl)imidazo[1,2-a]pyridin-2-yl)-4,4,4-trifluoro-3-methylbutanamide] reads < 500 nM.
Regarding `O=C(Cc1ccc(F)cc1)Nc1nc2ccc(C(F)(F)F)cn2c1C1CC1` [Compound 70, N-(3-cyclopropyl-6-(trifluoromethyl)imidazo[1,2-a]pyridin-2-yl)-2-(4-fluorophenyl)acetamide], the EC50 is < 500 nM.
The value for `CC(C)(C)Cc1c(NC(=O)CC2CCCC2(F)F)nc2ccc(C(F)(F)F)cn12` (stereo not shown) [Compound 71, 2-(2,2-difluorocyclopentyl)-N-(3-neopentyl-6-(trifluoromethyl)imidazo[1,2-a]pyridin-2-yl)acetamide] was < 500 nM; that for `CC(C)(C)Cc1c(NC(=O)CC2CCCC2)nc2ccc(C(F)(F)F)cn12` [Compound 72, 2-cyclopentyl-N-(3-neopentyl-6-(trifluoromethyl)imidazo[1,2-a]pyridin-2-yl)acetamide] was < 500 nM.
The value for `CC(C)(C)Cc1c(NC(=O)C2CCC(F)(F)CC2)nc2ccc(C(F)(F)F)cn12` [Compound 73, 4,4-difluoro-N-(3-neopentyl-6-(trifluoromethyl)imidazo[1,2-a]pyridin-2-yl)cyclohexanecarboxamide] was < 500 nM.
The value for `Cc1ccc2nc(NC(=O)CC(C)(C)C)c(C3CC3)n2n1` [Compound 74, N-(3-cyclopropyl-6-methylimidazo[1,2-b]pyridazin-2-yl)-3,3-dimethylbutanamide] was 500 to 3000 nM.
Turning to `O=C(Nc1nc2ccc(C(F)(F)F)cn2c1C1CC1)C1CCC(F)(F)CC1` [Compound 75, N-(3-cyclopropyl-6-(trifluoromethyl)imidazo[1,2-a]pyridin-2-yl)-4,4-difluorocyclohexanecarboxamide], the EC50 is < 500 nM.
For `Cc1ccc2nc(NC(=O)CC(C)C(F)(F)F)c(C3CC3)n2n1` (stereo not shown) [Compound 76, N-(3-cyclopropyl-6-methylimidazo[1,2-b]pyridazin-2-yl)-4,4,4-trifluoro-3-methylbutanamide], the EC50 lay within 3000 to 10000 nM.
